Results on 44 compounds are retold here after patent US7179825B2, “Retinoic acid mimetic anilides” (Janssen Pharmaceutica N.V., priority 1997, dated 2007).

In one assay the test system is Ovariectomized rats. The assay can be described thus: Vaginal keratinization test on ovariectomized rats (Example C.2). It counts as in vivo. Conditions: estradiol undecylate induced keratinization, per os once daily on days 1-3, active dose = 50% of rats show complete suppression. The method, boiled down: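 Ovariectomized rats given s.c. estradiol undecylate (100 μg per 100 g body weight in sesame oil), then oral compound once daily on days 1-3 (vehicle PEG 200). Vaginas assessed histologically one day after last dose; lowest active dose (mg/kg) is the dose giving complete keratinization suppression in 50% of rats.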

The subject of assay [1] is metabolism of retinoic acid in human breast cancer cells. The assay can be described thus: Inhibition of retinoic acid (RA) metabolism (Example C.1). It counts as cell-based. Conditions: MCF-7 human breast cancer cells, 3H-RA as substrate; concentration needed to reduce the amount of metabolites to 50% of the control. The method, boiled down:
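MCF-7 cells, pre-stimulated with RA the day before, incubated with ³H-RA substrate and test compound in 1% DMSO. Polar ³H-metabolites separated from unmetabolized RA and counted by scintillation. IC50 is the concentration cutting metabolite formation to 50% of control, with blank run alongside.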

With `CC(C(c1ccc(NC(=O)CN2CCN(C)CC2)cc1)n1ccnc1)N(C)C` (single isomer, unassigned) [Compound 353], in the assay with Ovariectomized rats, the “LAD (lowest active dose)” value is on record as greater than 5.00 mg/kg. In addition, the IC50 (in general, the concentration that inhibits the measured activity by half) in assay [1] was 1.97 nM.

For `CC(C(c1ccc(NC(=O)Cc2ccc(Cl)cc2)cc1)n1ccnc1)N1CCCCC1` (single isomer, unassigned) [Compound 366], in the assay on Ovariectomized rats, the “LAD (lowest active dose)” value is given as greater than 10.00 mg/kg. For the same compound, in assay [1], the IC50 is 3.05 nM.

In the case of `CC(C(c1ccc(NC(=O)Cc2ccc(Cl)cc2)cc1)n1ccnc1)N(C)C` (single isomer, unassigned) [Compound 367], the “LAD (lowest active dose)” value with Ovariectomized rats is 2.50 mg/kg. Also, the IC50 in assay [1] amounted to 1.25 nM.

On to `CC(C(c1ccc(NC(=O)Cc2ccc(Cl)cc2)cc1)n1ccnc1)N(C)C` (single isomer, unassigned) [Compound 368], for which, in the assay with Ovariectomized rats, the “LAD (lowest active dose)” value turned out to be 2.50 mg/kg. In assay [1], the IC50 came out at 0.583 nM.

Take `CC(Sc1ccccc1)C(c1ccc(NC(=O)Cc2ccc(Cl)cc2)cc1)n1ccnc1` (single isomer, unassigned) [Compound 369]: the “LAD (lowest active dose)” value in the assay on Ovariectomized rats is listed as 10.00 mg/kg. Further, the IC50 in assay [1] is 82.2 nM.

Turning to `CC(Oc1ccccc1)C(c1ccc(NC(=O)Cc2ccc(Cl)cc2)cc1)n1ccnc1` (single isomer, unassigned) [Compound 370], the “LAD (lowest active dose)” value in the assay on Ovariectomized rats is given as greater than 10.00 mg/kg. Besides, the IC50 in assay [1] turned out to be 83.4 nM.

Regarding `CC(Sc1ccccc1)C(c1ccc(NC(=O)Cc2ccc(Cl)cc2)cc1)n1ccnc1` (single isomer, unassigned) [Compound 376], the “LAD (lowest active dose)” value in the assay on Ovariectomized rats was 2.50 mg/kg. In addition, the IC50 in assay [1] was less than 0.1 nM.

In the case of `CCN(CC)C(C)C(c1ccc(NC(=O)Cc2ccc(OC)c(OC)c2)cc1)n1ccnc1` (single isomer, unassigned) [Compound 383], the “LAD (lowest active dose)” value in the assay on Ovariectomized rats is reported as greater than 2.50 mg/kg. In addition, the IC50 in assay [1] was determined as 0.729 nM.

In the case of `CCCCCC(C)C(c1ccc(NC(=O)Cc2ccc(OC)c(OC)c2)cc1)n1ccnc1` (single isomer, unassigned) [Compound 385], the “LAD (lowest active dose)” value in the assay with Ovariectomized rats is given as greater than 2.50 mg/kg. Further, in assay [1], the 50% inhibitory concentration (IC50) turned out to be 6.75 nM.

As for `COc1ccc(CC(=O)Nc2ccc(C(C(C)CN3CCCCC3)n3ccnc3)cc2)cc1OC` (single isomer, unassigned) [Compound 389], the “LAD (lowest active dose)” value with Ovariectomized rats was greater than 2.50 mg/kg. Moreover, the IC50 in assay [1] was determined as 0.0567 nM.

With `CCC(C(c1ccc(NC(=O)Cc2ccc(OC)c(OC)c2)cc1)n1ccnc1)N(C)C` (single isomer, unassigned) [Compound 393], in the assay on Ovariectomized rats, the “LAD (lowest active dose)” value was 5.00 mg/kg. Besides, the IC50 in assay [1] was found to be 0.955 nM.

`COCC(C)C(c1ccc(NC(=O)Cc2ccc(OC)c(OC)c2)cc1)n1ccnc1` (single isomer, unassigned) [Compound 405]: in the assay with Ovariectomized rats, the “LAD (lowest active dose)” value is 5.00 mg/kg. Also, the IC50 in assay [1] worked out at 3.68 nM.

On to `COc1ccc(CC(=O)Nc2ccc(C(C(C)N3CCN(C)CC3)n3ccnc3)cc2)cc1OC.O` (single isomer, unassigned) [Compound 412], for which the “LAD (lowest active dose)” value in the assay on Ovariectomized rats is greater than 2.50 mg/kg. The 50% inhibitory concentration (IC50) in assay [1] was 3.99 nM.

Turning to `CCCN(C)C(C)C(c1ccc(NC(=O)Cc2ccc(OC)c(OC)c2)cc1)n1ccnc1` (single isomer, unassigned) [Compound 413], the “LAD (lowest active dose)” value with Ovariectomized rats stood at 5.00 mg/kg. In assay [1], the IC50 amounted to 5.27 nM.

In the case of `CCN(C)C(C)C(c1ccc(NC(=O)Cc2ccc(OC)c(OC)c2)cc1)n1ccnc1` (single isomer, unassigned) [Compound 416], the “LAD (lowest active dose)” value in the assay on Ovariectomized rats was greater than 5.00 mg/kg. Moreover, in assay [1], the IC50 is 0.367 nM.

On to `C/C(=C\c1ccccc1)C(=O)Nc1ccc(C(C(C)C)n2ccnc2)cc1` (single isomer, unassigned) [Compound 458], for which the “LAD (lowest active dose)” value in the assay on Ovariectomized rats came to 5.00 mg/kg. Besides, the IC50 in assay [1] came out at 3.22 nM.

As for `CC(=Cc1ccccc1)C(=O)Nc1ccc(C(C(C)C)n2ccnc2)cc1` (single isomer, unassigned) [Compound 459], the “LAD (lowest active dose)” value in the assay with Ovariectomized rats turned out to be 20.00 mg/kg. The IC50 in assay [1] was 17.7 nM.

Turning to `CCCC(C)C(c1ccc(NC(=O)/C(C)=C/c2ccccc2)cc1)n1ccnc1` (single isomer, unassigned) [Compound 482], the “LAD (lowest active dose)” value with Ovariectomized rats was determined as 10.00 mg/kg. Moreover, in assay [1], the IC50 came out at 1.95 nM.

Take `CC(=Cc1ccccc1)C(=O)Nc1ccc(C(C(C)Sc2ccccc2)n2ccnc2)cc1` (single isomer, unassigned) [Compound 483]: the “LAD (lowest active dose)” value in the assay with Ovariectomized rats is greater than 5.00 mg/kg. Also, in assay [1], the IC50 was 19.8 nM.

With `CC(=Cc1ccccc1)C(=O)Nc1ccc(C(C(C)Sc2ccccc2)n2ccnc2)cc1` (single isomer, unassigned) [Compound 484], the “LAD (lowest active dose)” value with Ovariectomized rats is listed as greater than 5.00 mg/kg. Further, the IC50 in assay [1] was found to be 3.43 nM.

In the case of `CC(=Cc1ccccc1)C(=O)Nc1ccc(C(C(C)c2ccccc2)n2ccnc2)cc1` (single isomer, unassigned) [Compound 489], the “LAD (lowest active dose)” value in the assay with Ovariectomized rats turned out to be 2.50 mg/kg. Also, the IC50 in assay [1] was greater than 100 nM.

As to `C/C(=C\c1ccccc1)C(=O)Nc1ccc(C(C(C)c2ccccc2)n2ccnc2)cc1` (single isomer, unassigned) [Compound 490], the “LAD (lowest active dose)” value in the assay on Ovariectomized rats amounted to 2.50 mg/kg. The IC50 in assay [1] was greater than 100 nM.

For `CCCCCC(CC)C(c1ccc(NC(=O)C(C)=Cc2ccccc2)cc1)n1ccnc1` (single isomer, unassigned) [Compound 492], the “LAD (lowest active dose)” value with Ovariectomized rats is listed as greater than 2.50 mg/kg. In assay [1], the IC50 worked out at 4.07 nM.

Turning to `CCC(C(c1ccc(NC(C)=O)cc1)n1ccnc1)N(C)C` (single isomer, unassigned) [Compound 558], the “LAD (lowest active dose)” value in the assay with Ovariectomized rats is given as greater than 5.00 mg/kg. For the same compound, in assay [1], the IC50 amounted to 1.32 nM.

As to `CCC(C(c1ccc(NC(C)=O)cc1)n1cncn1)N(C)C` (single isomer, unassigned) [Compound 645], the “LAD (lowest active dose)” value in the assay with Ovariectomized rats is greater than 5.00 mg/kg. For the same compound, the IC50 in assay [1] was found to be 8.02 nM.

For `CCC(C(c1ccc(NC(=O)Cc2ccc(OC)c(OC)c2)cc1)n1cncn1)N(C)C` (single isomer, unassigned) [Compound 646], in the assay on Ovariectomized rats, the “LAD (lowest active dose)” value was 5.00 mg/kg. Further, the IC50 in assay [1] is 3.07 nM.

In the case of `CCN(CC)C(C)C(c1ccc(NC(=O)Cc2ccc(OC)c(OC)c2)cc1)n1cncn1` (single isomer, unassigned) [Compound 649], the “LAD (lowest active dose)” value in the assay on Ovariectomized rats is reported as 5.00 mg/kg. Moreover, the IC50 in assay [1] was 7.32 nM.

On to `CCC(CC)C(c1ccc(NC(=O)Cc2ccc(C)c(OC)c2)cc1)n1cncn1` (single isomer, unassigned) [Compound 782], for which the “LAD (lowest active dose)” value in the assay on Ovariectomized rats stood at 2.50 mg/kg. Besides, the IC50 in assay [1] turned out to be 1.26 nM.

As to `CCC(CC)C(c1ccc(NC(=O)Cc2ccc(C)c(OC)c2)cc1)n1cncn1` (single isomer, unassigned) [Compound 783], the “LAD (lowest active dose)” value with Ovariectomized rats was 5.00 mg/kg. Further, the IC50 in assay [1] amounted to 39.8 nM.

As to `CCC(CC)C(c1ccc(NC(=O)C(O)c2ccc(Cl)cc2)cc1)n1cncn1` (stereo not shown) [Compound 4], in the assay with Ovariectomized rats, the “LAD (lowest active dose)” value worked out at 0.60 mg/kg. For the same compound, the IC50 in assay [1] is 2.11 nM.

Consider `CCC(CC)C(c1ccc(NC(=O)CCCc2ccc(OC)c(OC)c2)cc1)n1cncn1` (stereo not shown) [Compound 8], for which the “LAD (lowest active dose)” value in the assay with Ovariectomized rats is given as greater than 2.50 mg/kg. Further, the IC50 in assay [1] amounted to 0.0937 nM.

As for `CCC(CC)C(c1ccc(NC(=O)Cc2ccc3nc(N)sc3c2)cc1)n1cncn1` (stereo not shown) [Compound 13], the “LAD (lowest active dose)” value with Ovariectomized rats is greater than 2.50 mg/kg. For the same compound, in assay [1], the IC50 was 0.0357 nM.

Take `CCC(CC)C(c1ccc(NC(=O)C2CCc3ccccc3O2)cc1)n1ccnc1` (stereo not shown) [Compound 29]: the “LAD (lowest active dose)” value in the assay on Ovariectomized rats worked out at 5.00 mg/kg. Further, the concentration for half-maximal inhibition (IC50) in assay [1] amounted to 8.12 nM.

With `CCC(CC)C(c1ccc(NC(=O)C2Oc3ccccc3O2)cc1)n1ccnc1` (stereo not shown) [Compound 34], the “LAD (lowest active dose)” value with Ovariectomized rats was 2.50 mg/kg. Also, the IC50 in assay [1] is 1.03 nM.

Consider `CCC(CC)C(c1ccc(NC(=O)Cc2ccc(-c3ccccc3)cc2)cc1)n1ccnc1` (stereo not shown) [Compound 41], for which, in the assay on Ovariectomized rats, the “LAD (lowest active dose)” value was determined as 2.50 mg/kg. Further, in assay [1], the half-maximal inhibitory concentration (IC50) was found to be 1.98 nM.

Consider `CCC(CC)C(c1ccc(NC(=O)C(SC)c2ccccc2)cc1)n1ccnc1` (stereo not shown) [Compound 50], for which the “LAD (lowest active dose)” value with Ovariectomized rats stood at 2.50 mg/kg. Further, the IC50 in assay [1] is 7.44 nM.

For the compound `CCC(CC)C(c1ccc(NC(=O)C(O)c2ccc(OC)c(OC)c2)cc1)n1ccnc1` (stereo not shown) [Compound 56], in the assay on Ovariectomized rats, the “LAD (lowest active dose)” value was greater than 5.00 mg/kg. Also, the IC50 in assay [1] was 0.0251 nM.

`CCC(CC)C(c1ccc(NC(=O)Cc2ccc(OCc3ccncc3)cc2)cc1)n1ccnc1` (stereo not shown) [Compound 127]: in the assay with Ovariectomized rats, the “LAD (lowest active dose)” value is recorded as greater than 2.50 mg/kg. The IC50 in assay [1] was found to be 0.0285 nM.

Consider `CCOc1cc(CC(=O)Nc2ccc(C(C(CC)CC)n3ccnc3)cc2)ccc1OCc1ccccc1` (stereo not shown) [Compound 128], for which, in the assay on Ovariectomized rats, the “LAD (lowest active dose)” value is 5.00 mg/kg. The IC50 in assay [1] was determined as 0.0181 nM.

Consider `CCC(CC)C(c1ccc(NC(=O)Cc2ccc(O)cc2C)cc1)n1ccnc1` (stereo not shown) [Compound 129], for which the “LAD (lowest active dose)” value in the assay with Ovariectomized rats was 2.50 mg/kg. Also, the IC50 in assay [1] turned out to be 0.0236 nM.

For `CCC(CC)C(c1ccc(NC(=O)Cc2ccc(OCc3cccnc3)cc2)cc1)n1ccnc1` (stereo not shown) [Compound 130], the “LAD (lowest active dose)” value in the assay on Ovariectomized rats worked out at 5.00 mg/kg. For the same compound, in assay [1], the IC50 worked out at 0.0109 nM.

For the compound `CC(C)C(c1ccc(NC(=O)Cc2ccc(Cl)cc2)cc1)n1cncn1` (stereo not shown) [Compound 131], in the assay on Ovariectomized rats, the “LAD (lowest active dose)” value is 5.00 mg/kg. In addition, in assay [1], the IC50 turned out to be 4.1 nM.

For `CC(C)C(c1ccc(NC(=O)Cc2ccc(F)cc2)cc1)n1cncn1` (stereo not shown) [Compound 132], the “LAD (lowest active dose)” value in the assay with Ovariectomized rats worked out at 5.00 mg/kg. The IC50 in assay [1] was 4.49 nM.

As to `Cc1ccc(CC(=O)Nc2ccc(C(C(C)C)n3cncn3)cc2)cc1` (stereo not shown) [Compound 133], in the assay with Ovariectomized rats, the “LAD (lowest active dose)” value is on record as greater than 5.00 mg/kg. Further, the IC50 in assay [1] stood at 4.56 nM.
